This note sets out measurements from patent US20230131899A1, “INHIBITORS OF MICROBIALLY INDUCED AMYLOID” (Axial Therapeutics, Inc., priority 2020, published 2023).

Like-named read-outs stand apart in the source and are kept apart here.

The test concerns CsgA gene expression (csgBAC promoter-GFP reporter) in E. coli UTI89. Description: In vitro live cell fluorescent reporter assay of CsgA transcription (Reporter Assay). The class given is cell-based. The conditions noted are these: Escherichia coli. In short, it runs like this:
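Chromosomal single-copy csgBAC promoter–GFP reporter in E. coli UTI89, started at OD600 0.003 in YESCA broth with compound (0.14–100 μM, 1% DMSO), 20 h at 27 °C. GFP (ex 485/em 525 nm) background-subtracted and normalized to vehicle; IC50 and X[50] from curve fits. OD600 tracked growth effects.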
In general terms: A reporter such as luciferase makes a cellular process visible.

The mark [1] stands for this setting: read-out: Reporter Assay Abs IC50 (activity range), median Abs IC50 in the CsgA reporter assay, class symbol.
The mark [2] stands for this setting: read-out: Reporter Assay Abs IC50 (μM), median Abs IC50 in the CsgA reporter assay, N/A = maximum expression reduction is <50% of control.
[3] abbreviates: read-out: Reporter Assay Abs IC50, activity range, class symbol.

For `CN(C)C(=O)C1CN(C)S(=O)(=O)c2c(-c3cccc(C(F)(F)F)c3)c(Cc3cccc4ccccc34)cc(=O)n21` (stereo not drawn) [Compound 032, N,N-2-trimethyl-8-(naphthalen-1-ylmethyl)-6-oxo-9-(3-(trifluoromethyl)phenyl)-3,4-dihydro-2H,6H-pyrido[1,2-e][1,2,5]thiadiazine-4-carboxamide 1,1-dioxide], the IC50 – broadly, the concentration that gives 50% inhibition – is, setting by setting: under setting [1], 1.3 to 4.5 µM; under setting [2], 3.3 µM.

In the case of `O=C(O)C1CN(Cc2ccc(-c3ccccc3)cc2)c2c(-c3cccc(C(F)(F)F)c3)c(Cc3cccc4ccccc34)c(Cl)c(=O)n21` (stereo not drawn) [Compound 202, 1-([1,1′-biphenyl]-4-ylmethyl)-6-chloro-7-(naphthalen-1-ylmethyl)-5-oxo-8-(3-(trifluoromethyl)phenyl)-1,2,3,5-tetrahydroimidazo[1,2-a]pyridine-3-carboxylic acid], the IC50 by setting is: under setting [2], 0.8 µM; under setting [3], below 1.3 µM.

Turning to `O=C(O)C1CN(Cc2ccccc2)c2c(-c3cccc(C(F)(F)F)c3)c(C(F)(F)c3cccc4ccccc34)c(Br)c(=O)n21` (stereo not drawn) [Compound 155, 1-benzyl-6-bromo-7-(difluoro(naphthalen-1-yl)methyl)-5-oxo-8-(3-(trifluoromethyl)phenyl)-1,2,3,5-tetrahydroimidazo[1,2-a]pyridine-3-carboxylic acid], the IC50 was 3 µM under setting [2] and 1.3 to 4.5 µM under setting [3].

As for `O=C(O)C1CN(C[C@H](O)[C@@H](O)[C@H](O)[C@H](O)CO)S(=O)(=O)c2c(-c3cccc(C(F)(F)F)c3)c(Cc3cccc4ccccc34)cc(=O)n21` (mixture of isomers) [Compound 066, 8-(naphthalen-1-ylmethyl)-6-oxo-2-((2S,3R,4R,5R)-2,3,4,5,6-pentahydroxyhexyl)-9-(3-(trifluoromethyl)phenyl)-3,4-dihydro-2H,6H-pyrido[1,2-e][1,2,5]thiadiazine-4-carboxylic acid 1,1-dioxide], the IC50 is above 10 µM under setting [1] and 40.2 µM under setting [2].

For the molecule `O=C(O)C1CN(Cc2ccc(CO)cc2)c2c(-c3cccc(C(F)(F)F)c3)c(Cc3cccc4ccccc34)c(Cl)c(=O)n21` (stereo not drawn) [Compound 170, 6-chloro-1-(4-(hydroxymethyl)benzyl)-7-(naphthalen-1-ylmethyl)-5-oxo-8-(3-(trifluoromethyl)phenyl)-1,2,3,5-tetrahydroimidazo[1,2-a]pyridine-3-carboxylic acid], the IC50 is 2.2 µM under setting [2] and 1.3 to 4.5 µM under setting [3].

Regarding `O=C(O)C1CN(Cc2ccccc2CO)c2c(-c3cccc(C(F)(F)F)c3)c(Cc3cccc4ccccc34)c(Cl)c(=O)n21` (stereo not drawn) [Compound 181, 6-chloro-1-(2-(hydroxymethyl)benzyl)-7-(naphthalen-1-ylmethyl)-5-oxo-8-(3-(trifluoromethyl)phenyl)-1,2,3,5-tetrahydroimidazo[1,2-a]pyridine-3-carboxylic acid], the IC50 by setting is: under setting [2], 2 µM; under setting [3], 1.3 to 4.5 µM.

Regarding `O=C(O)C1CN(Cc2ccccc2)c2c(-c3cccc(C(F)(F)F)c3)c(Cc3cccc4ccccc34)c(Cl)c(=O)n21` (stereo not drawn) [Compound 004, 1-benzyl-6-chloro-7-(naphthalen-1-ylmethyl)-5-oxo-8-(3-(trifluoromethyl)phenyl)-1,2,3,5-tetrahydroimidazo[1,2-a]pyridine-3-carboxylic acid], the IC50 reads like this: under setting [2], 0.7 µM; under setting [3], below 1.3 µM.

On to `O=C(O)C1CSc2c(-c3cccc(C(F)(F)F)c3)c(C(F)(F)c3cccc4ccccc34)cc(=O)n21` (stereo not drawn) [Compound 073, 7-(difluoro(naphthalen-1-yl)methyl)-5-oxo-8-(3-(trifluoromethyl)phenyl)-2,3-dihydro-5H-thiazolo[3,2-a]pyridine-3-carboxylic acid], for which the IC50 by setting is: under setting [1], 4.6 to 10 µM; under setting [2], 6 µM.

For the molecule `O=C(O)C1CN(CC2CCCC2)c2c(-c3cccc(C(F)(F)F)c3)c(Cc3cccc4ccccc34)c(Cl)c(=O)n21` (stereo not drawn) [Compound 167, 6-chloro-1-(cyclopentylmethyl)-7-(naphthalen-1-ylmethyl)-5-oxo-8-(3-(trifluoromethyl)phenyl)-1,2,3,5-tetrahydroimidazo[1,2-a]pyridine-3-carboxylic acid], the IC50 runs as follows: under setting [2], 0.6 µM; under setting [3], below 1.3 µM.
